Source: ChEMBL document CHEMBL5375979, “Chemical, Biochemical, Cellular, and Physiological Characterization of Leucettinib-21, a Down Syndrome and Alzheimer's Disease Drug Candidate” (J Med Chem, 2023)
Where “and” joins values, the source holds several entries; their conditions need not be identical. Equal values may be shown once.

How the values were obtained:
[1] = molecular target: Dual specificity tyrosine-phosphorylation-regulated kinase 1B (Homo sapiens, UniProt Q9Y463)
[2] = molecular target: Dual specificity protein kinase CLK4 (Homo sapiens, UniProt Q9HAZ1)
Chain of Dual specificity protein kinase CLK4 (Q9HAZ1 whole entry): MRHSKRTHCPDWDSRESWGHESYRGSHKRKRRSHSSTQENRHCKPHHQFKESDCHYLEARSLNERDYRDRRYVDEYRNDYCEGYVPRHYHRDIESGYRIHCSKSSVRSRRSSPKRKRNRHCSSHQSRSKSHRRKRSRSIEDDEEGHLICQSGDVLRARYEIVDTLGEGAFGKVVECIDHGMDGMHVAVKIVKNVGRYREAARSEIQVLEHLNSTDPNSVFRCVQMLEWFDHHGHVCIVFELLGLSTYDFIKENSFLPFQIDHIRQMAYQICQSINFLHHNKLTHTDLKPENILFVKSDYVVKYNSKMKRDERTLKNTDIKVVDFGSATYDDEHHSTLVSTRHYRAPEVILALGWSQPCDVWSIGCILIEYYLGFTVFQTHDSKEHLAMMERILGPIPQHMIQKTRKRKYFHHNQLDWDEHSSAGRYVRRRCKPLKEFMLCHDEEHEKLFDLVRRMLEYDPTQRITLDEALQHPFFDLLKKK

[3] = molecular target: Dual specificity tyrosine-phosphorylation-regulated kinase 1A (Homo sapiens, UniProt Q13627)
[4] = molecular target: Dual specificity protein kinase CLK1 (Homo sapiens, UniProt P49759)
Chain of Dual specificity protein kinase CLK1 (P49759 whole entry): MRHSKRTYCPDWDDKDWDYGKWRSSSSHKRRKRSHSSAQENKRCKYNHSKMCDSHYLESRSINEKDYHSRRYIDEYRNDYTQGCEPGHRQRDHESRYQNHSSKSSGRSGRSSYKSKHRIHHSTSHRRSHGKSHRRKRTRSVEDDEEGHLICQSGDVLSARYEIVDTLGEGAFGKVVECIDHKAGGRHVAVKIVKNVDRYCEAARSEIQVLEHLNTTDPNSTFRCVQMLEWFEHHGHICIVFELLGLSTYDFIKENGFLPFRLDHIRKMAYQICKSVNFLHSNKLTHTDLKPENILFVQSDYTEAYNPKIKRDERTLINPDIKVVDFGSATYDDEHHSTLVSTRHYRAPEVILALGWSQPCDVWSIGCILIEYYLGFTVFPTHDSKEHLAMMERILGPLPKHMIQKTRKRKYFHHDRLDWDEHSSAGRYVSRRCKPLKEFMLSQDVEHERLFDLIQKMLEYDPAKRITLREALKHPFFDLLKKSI

[5] = molecular target: Dual specificity protein kinase CLK3 (Homo sapiens, UniProt P49761)
Chain of Dual specificity protein kinase CLK3 (P49761 whole entry): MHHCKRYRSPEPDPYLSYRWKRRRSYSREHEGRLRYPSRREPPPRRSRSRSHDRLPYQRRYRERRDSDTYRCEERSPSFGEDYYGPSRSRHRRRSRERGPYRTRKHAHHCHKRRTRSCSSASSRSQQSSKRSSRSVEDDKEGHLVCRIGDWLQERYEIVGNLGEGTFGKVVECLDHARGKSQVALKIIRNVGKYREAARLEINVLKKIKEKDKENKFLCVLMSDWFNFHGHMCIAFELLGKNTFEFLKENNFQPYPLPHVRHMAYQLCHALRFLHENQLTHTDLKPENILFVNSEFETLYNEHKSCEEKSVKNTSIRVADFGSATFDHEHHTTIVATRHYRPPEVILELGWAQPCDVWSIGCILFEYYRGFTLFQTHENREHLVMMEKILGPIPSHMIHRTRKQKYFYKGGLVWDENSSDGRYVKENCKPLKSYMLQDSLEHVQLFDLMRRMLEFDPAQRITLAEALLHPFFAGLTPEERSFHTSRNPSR

[6] = molecular target: Cyclin-dependent kinase 5 (Homo sapiens, UniProt Q00535)
Chain of Cyclin-dependent kinase 5 (Q00535 whole entry): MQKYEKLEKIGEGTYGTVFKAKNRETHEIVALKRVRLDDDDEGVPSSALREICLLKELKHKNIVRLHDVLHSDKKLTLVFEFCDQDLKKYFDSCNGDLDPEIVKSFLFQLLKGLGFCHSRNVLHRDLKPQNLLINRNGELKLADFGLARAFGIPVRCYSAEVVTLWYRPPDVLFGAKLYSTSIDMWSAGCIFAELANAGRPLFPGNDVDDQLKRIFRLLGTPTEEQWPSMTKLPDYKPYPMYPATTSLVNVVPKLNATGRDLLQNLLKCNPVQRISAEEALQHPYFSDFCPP

[7] = molecular target: Glycogen synthase kinase-3 (Homo sapiens, UniProt P49840+P49841); format: protein assay
[8] = molecular target: T1, Dual specificity tyrosine-phosphorylation-regulated kinase 2 (Homo sapiens, UniProt Q92630)
T1 sequence (Q92630 whole entry): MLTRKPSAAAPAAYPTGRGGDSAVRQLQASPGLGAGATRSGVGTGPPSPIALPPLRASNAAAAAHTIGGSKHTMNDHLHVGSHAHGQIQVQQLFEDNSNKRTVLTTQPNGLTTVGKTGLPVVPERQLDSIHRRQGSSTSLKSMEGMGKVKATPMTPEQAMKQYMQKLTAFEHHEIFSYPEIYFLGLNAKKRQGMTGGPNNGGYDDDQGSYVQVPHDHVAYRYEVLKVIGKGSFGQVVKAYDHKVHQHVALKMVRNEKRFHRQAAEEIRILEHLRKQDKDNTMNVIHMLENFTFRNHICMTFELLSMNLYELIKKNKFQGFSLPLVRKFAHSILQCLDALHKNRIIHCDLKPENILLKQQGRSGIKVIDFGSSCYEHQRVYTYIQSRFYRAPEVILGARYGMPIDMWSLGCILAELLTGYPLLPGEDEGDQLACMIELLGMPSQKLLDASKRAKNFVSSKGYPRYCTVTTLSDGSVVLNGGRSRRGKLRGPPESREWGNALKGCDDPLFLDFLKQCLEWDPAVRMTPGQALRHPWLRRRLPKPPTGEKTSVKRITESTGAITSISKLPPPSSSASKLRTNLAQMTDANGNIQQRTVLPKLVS

[9] = molecular target: T2, Dual specificity tyrosine-phosphorylation-regulated kinase 3 (Homo sapiens, UniProt O43781)
T2 sequence (O43781 whole entry): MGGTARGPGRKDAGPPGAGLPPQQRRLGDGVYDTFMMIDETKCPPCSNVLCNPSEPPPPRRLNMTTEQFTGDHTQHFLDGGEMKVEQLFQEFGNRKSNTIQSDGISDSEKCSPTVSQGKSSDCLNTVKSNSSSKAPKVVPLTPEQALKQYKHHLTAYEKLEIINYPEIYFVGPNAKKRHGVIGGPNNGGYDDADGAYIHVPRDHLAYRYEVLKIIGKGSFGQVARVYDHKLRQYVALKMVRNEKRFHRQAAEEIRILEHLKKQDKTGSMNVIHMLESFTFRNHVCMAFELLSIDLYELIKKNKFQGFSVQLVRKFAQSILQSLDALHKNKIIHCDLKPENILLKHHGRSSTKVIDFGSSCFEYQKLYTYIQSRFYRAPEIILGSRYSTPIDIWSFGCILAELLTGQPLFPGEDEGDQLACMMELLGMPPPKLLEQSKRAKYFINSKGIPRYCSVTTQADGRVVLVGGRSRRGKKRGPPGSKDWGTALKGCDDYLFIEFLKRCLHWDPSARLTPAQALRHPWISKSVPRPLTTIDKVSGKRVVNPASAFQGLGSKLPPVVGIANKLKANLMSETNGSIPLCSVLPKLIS

[10] = molecular target: Casein kinase I; format: protein assay, Homo sapiens
[11] = molecular target: Dual specificity protein kinase CLK2 (Homo sapiens, UniProt P49760)
Chain of Dual specificity protein kinase CLK2 (P49760 whole entry): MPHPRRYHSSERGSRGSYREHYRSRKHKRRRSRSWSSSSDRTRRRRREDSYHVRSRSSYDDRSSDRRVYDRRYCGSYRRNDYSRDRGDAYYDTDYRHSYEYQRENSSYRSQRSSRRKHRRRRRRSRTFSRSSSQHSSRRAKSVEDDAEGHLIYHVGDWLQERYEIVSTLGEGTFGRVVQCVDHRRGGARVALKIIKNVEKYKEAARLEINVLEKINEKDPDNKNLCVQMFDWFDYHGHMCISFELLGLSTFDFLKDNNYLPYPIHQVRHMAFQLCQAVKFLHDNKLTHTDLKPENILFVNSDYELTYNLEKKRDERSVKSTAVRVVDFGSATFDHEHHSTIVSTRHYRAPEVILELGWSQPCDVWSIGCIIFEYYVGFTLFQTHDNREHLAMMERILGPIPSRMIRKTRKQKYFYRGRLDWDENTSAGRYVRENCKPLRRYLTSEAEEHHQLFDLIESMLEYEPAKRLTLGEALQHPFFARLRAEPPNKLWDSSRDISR

[12] = molecular target: T3, Dual specificity tyrosine-phosphorylation-regulated kinase 4 (Homo sapiens, UniProt Q9NR20)
T3 sequence (Q9NR20 whole entry): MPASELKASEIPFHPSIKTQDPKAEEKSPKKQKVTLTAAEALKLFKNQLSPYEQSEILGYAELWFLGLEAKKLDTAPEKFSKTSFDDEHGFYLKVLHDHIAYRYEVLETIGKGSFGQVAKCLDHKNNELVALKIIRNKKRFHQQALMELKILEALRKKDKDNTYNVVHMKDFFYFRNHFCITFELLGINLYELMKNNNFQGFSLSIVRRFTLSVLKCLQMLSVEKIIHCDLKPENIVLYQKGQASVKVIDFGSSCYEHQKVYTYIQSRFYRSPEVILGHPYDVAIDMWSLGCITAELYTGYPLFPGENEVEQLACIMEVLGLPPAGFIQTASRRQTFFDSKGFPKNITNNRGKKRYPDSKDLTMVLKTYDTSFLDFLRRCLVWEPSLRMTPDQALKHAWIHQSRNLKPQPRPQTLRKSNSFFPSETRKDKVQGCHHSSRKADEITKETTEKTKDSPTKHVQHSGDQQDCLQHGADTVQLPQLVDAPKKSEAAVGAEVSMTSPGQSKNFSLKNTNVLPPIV

Chain of Dual specificity tyrosine-phosphorylation-regulated kinase 1B (Q9Y463 whole entry): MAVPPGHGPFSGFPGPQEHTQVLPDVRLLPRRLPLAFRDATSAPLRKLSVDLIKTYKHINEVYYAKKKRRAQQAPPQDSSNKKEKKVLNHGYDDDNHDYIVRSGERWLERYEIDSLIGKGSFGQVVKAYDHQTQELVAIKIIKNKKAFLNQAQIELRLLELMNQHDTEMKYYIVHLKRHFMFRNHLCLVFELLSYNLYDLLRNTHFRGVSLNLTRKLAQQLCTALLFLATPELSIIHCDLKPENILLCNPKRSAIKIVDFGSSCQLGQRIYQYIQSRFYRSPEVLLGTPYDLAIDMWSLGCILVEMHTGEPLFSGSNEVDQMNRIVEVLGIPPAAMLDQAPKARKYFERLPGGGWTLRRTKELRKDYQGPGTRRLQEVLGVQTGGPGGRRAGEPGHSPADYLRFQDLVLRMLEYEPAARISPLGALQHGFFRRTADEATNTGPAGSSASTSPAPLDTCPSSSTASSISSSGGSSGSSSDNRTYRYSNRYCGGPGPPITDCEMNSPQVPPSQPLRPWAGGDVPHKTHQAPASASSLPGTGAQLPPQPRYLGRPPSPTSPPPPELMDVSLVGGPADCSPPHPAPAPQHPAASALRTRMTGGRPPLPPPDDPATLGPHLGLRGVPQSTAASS

Structure (SMILES)	IC50 [1]	IC50 [2]	IC50 [3]	IC50 [4]	also measured
COC[C@@H](CC(C)C)NC1=N/C(=C\c2ccc3c(cnn3C)c2)C(=O)N1	358 nM	189 nM			
COC[C@@H](CC(C)C)NC1=N/C(=C\c2ccc3scnc3c2)C(=O)N1C	> 10000 nM	> 10000 nM	> 10000 nM	> 10000 nM	
COC[C@@H](CC(C)C)NC1=N/C(=C\c2ccc3c(c2)ncn3C)C(=O)N1	> 10000 nM	> 10000 nM	> 10000 nM	> 10000 nM	
COC[C@@H](CC(C)C)NC1=N/C(=C\c2ccc3[nH]ncc3c2)C(=O)N1C	134 nM	166 nM	196 nM		
COC[C@@H](CC(C)C)NC1=N/C(=C\c2ccc3nn(C)cc3c2)C(=O)N1	78.3 nM			191 nM	
COC[C@@H](CC(C)C)NC1=N/C(=C\c2ccc3ncsc3c2)C(=O)N1C1CCC1		1210 nM	5620 nM	1420 nM	IC50 [5]: 4690 nM; IC50 [6]: > 10000 nM; IC50 [7]: > 10000 nM; IC50 [8]: 581 nM; IC50 [9]: 5320 nM; IC50 [10]: > 10000 nM
COC[C@@H](CC(C)C)NC1=N/C(=C\c2cnc3ncsc3c2)C(=O)N1		> 10000 nM		> 10000 nM	IC50 [11]: > 10000 nM; IC50 [5]: > 10000 nM; IC50 [6]: > 10000 nM; IC50 [7]: > 10000 nM; IC50 [12]: > 10000 nM; IC50 [8]: > 10000 nM; IC50 [10]: > 10000 nM
O=C1NC(Nc2ccccc2)=N/C1=C\c1ccc2c(c1)OCO2		10 nM			IC50 [5]: 5840 nM; IC50 [7]: 1544 nM; IC50 [12]: 507 nM; IC50 [10]: > 10000 nM
COC[C@@H](CC(C)C)NC1=N/C(=C\c2ccc3c(ccn3C)c2)C(=O)N1	8170 nM	> 10000 nM		> 10000 nM	
CN1C(=O)/C(=C/c2ccc3c(c2)OCO3)N=C1N [LEUCETTAMINE B]					IC50 [7]: > 10000 nM; IC50 [10]: > 10000 nM
COC[C@@H](CC(C)C)NC1=N/C(=C/c2ccc3ncoc3c2)C(=O)N1C		16.3 nM		18.8 nM	
COC[C@@H](CC(C)C)NC1=N/C(=C\c2ccc3ncn(C)c3c2)C(=O)N1C				37.6 nM	
COC[C@@H](CC(C)C)NC1=N/C(=C\c2ccc3c(c2)OCO3)C(=O)N1	23 nM	13.5 nM	5 nM	1 nM	
COC[C@@H](CC(C)C)NC1=N/C(=C\c2ccc3nnsc3c2)C(=O)N1C	751 nM	861 nM	950 nM	734 nM	
COC[C@@H](CC(C)C)NC1=N/C(=C\c2ccc3c(cnn3C)c2)C(=O)N1C			399 nM	408 nM	
COC[C@@H](CC(C)C)NC1=N/C(=C\c2ccc3c(ccn3C)c2)C(=O)N1C	> 10000 nM	> 10000 nM	> 10000 nM	> 10000 nM	
COC[C@@H](CC(C)C)NC1=N/C(=C\c2ccc3c(c2)CCO3)C(=O)N1C	170 nM	578 nM	488 nM		
COC[C@@H](CC(C)C)NC1=N/C(=C\c2ccc3nc(C)sc3c2)C(=O)N1		52.7 nM			
COC[C@@H](CC(C)C)NC1=N/C(=C\c2ccc3ncsc3c2)C(=O)N1C	9.6 nM and 16.6 nM	11.6 nM and 12.4 nM			IC50 [6]: > 10000 nM; IC50 [7]: 4481 nM; IC50 [12]: 525 nM; IC50 [10]: > 10000 nM

Structure (SMILES)	IC50 [1]	IC50 [2]	IC50 [3]	IC50 [4]	also measured
COC[C@@H](CC(C)C)NC1=N/C(=C\c2ccc3ncoc3c2)C(=O)N1				14.2 nM	
COC[C@@H](CC(C)C)NC1=N/C(=C\c2ccc3ncsc3c2)C(=O)N1C1CCCCC1	> 10000 nM	4910 nM		> 10000 nM	IC50 [11]: > 10000 nM; IC50 [5]: > 10000 nM; IC50 [6]: > 10000 nM; IC50 [7]: > 10000 nM; IC50 [12]: > 10000 nM; IC50 [8]: 3970 nM; IC50 [10]: > 10000 nM
CC(C)C[C@H](CO)NC1=N/C(=C\c2ccc3ncsc3c2)C(=O)N1				13.9 nM	IC50 [5]: 461 nM; IC50 [6]: > 10000 nM; IC50 [7]: 2320 nM; IC50 [12]: 510 nM; IC50 [8]: 635 nM; IC50 [9]: 310 nM; IC50 [10]: > 10000 nM
COC[C@@H](CC(C)C)NC1=N/C(=C\c2ccc3[nH]ncc3c2)C(=O)N1	115 nM	245 nM		310 nM	
CCN1C(=O)/C(=C/c2ccc3ncsc3c2)N=C1N[C@@H](COC)CC(C)C		58.5 nM		200 nM	IC50 [5]: 1360 nM; IC50 [6]: > 10000 nM; IC50 [7]: 7867 nM; IC50 [12]: 2560 nM; IC50 [8]: 165 nM; IC50 [10]: > 10000 nM
COC[C@@H](CC(C)C)NC1=N/C(=C\c2ccc3ncsc3n2)C(=O)N1	85 nM	26.4 nM	36.5 nM	33.6 nM	IC50 [5]: 219 nM; IC50 [6]: > 10000 nM; IC50 [7]: 4270 nM; IC50 [12]: 4780 nM; IC50 [8]: 4360 nM; IC50 [9]: 1380 nM; IC50 [10]: > 10000 nM
COC[C@@H](CC(C)C)NC1=N/C(=C\c2ccc3ncn(C)c3c2)C(=O)N1		11.7 nM	78.7 nM	38.2 nM	
COC[C@@H](CC(C)C)NC1=N/C(=C\c2ccc3nnsc3c2)C(=O)N1		268 nM			
COC[C@@H](CC(C)C)NC1=N/C(=C\c2ccc3c(c2)OCO3)C(=O)N1C	41.1 nM	77.1 nM	53.5 nM	131 nM	
COC[C@@H](CC(C)C)NC1=N/C(=C\c2ccc3[nH]ccc3c2)C(=O)N1C		> 10000 nM	3930 nM		
COC[C@@H](CC(C)C)NC1=N/C(=C\c2ccc3[nH]cnc3c2)C(=O)N1C		2.1 nM	112 nM		
COC[C@@H](CC(C)C)NC1=N/C(=C\c2ccc3[nH]ccc3c2)C(=O)N1	> 10000 nM	> 10000 nM	4790 nM		
COC[C@@H](CC(C)C)NC1=N/C(=C\c2ccc3[nH]cnc3c2)C(=O)N1	1080 nM	41.2 nM	76.6 nM	104 nM	
COC[C@@H](CC(C)C)NC1=N/C(=C\c2ccc3nc(C)sc3c2)C(=O)N1C		673 nM	511 nM	496 nM	
COC[C@@H](CC(C)C)NC1=N/C(=C\c2ccc3c(c2)ncn3C)C(=O)N1C	> 10000 nM	> 10000 nM	> 10000 nM	> 10000 nM	
CC(C)C[C@@H](CO)NC1=N/C(=C\c2ccc3ncsc3c2)C(=O)N1				38.7 nM	IC50 [5]: 474 nM; IC50 [6]: > 10000 nM; IC50 [7]: 8165 nM; IC50 [12]: 5180 nM; IC50 [8]: 2840 nM; IC50 [9]: 493 nM; IC50 [10]: > 10000 nM
COC[C@@H](CC(C)C)NC1=N/C(=C\c2ccc3c(c2)CCO3)C(=O)N1	71.6 nM	14 nM	11.6 nM	56.7 nM	
COC[C@@H](CC(C)C)NC1=N/C(=C\c2ccc3nn(C)cc3c2)C(=O)N1C		153 nM		258 nM	
